The source of these data is article PMC8854749, “Celastrol Inhibits Canine Mammary Tumor Cells by Inducing Apoptosis via the Caspase Pathway” (Frontiers in Veterinary Science, 2022).

Peptide text beside a SMILES is read from it. * marks the point of attachment. Cbz = O=C(OCc1ccccc1)*; CH2F = FC*

Common to all, as to assay: Western blot of apoptosis- and cell cycle-related proteins
What all share (type): cell-based, canine
A general note: Immunoblotting shows a protein as a band on a membrane.

Assay [1] has as its system CIPp cells. The note with it: inhibitor with celastrol, 24 h, vs celastrol alone. The method, then: (§1) The CMT-7364 and CIPp cells were treated with different concentrations of Caspase inhibitor Z-V-F and/or celastrol for 24 h, and the cells were lysed with RIPA lysis buffer on ice. The protein was extracted according to the manufacturer's instructions, and protein concentration was determined by the BCA protein concentration assay kit. The loading amount of 20 μg protein in each group was separated by 10% SDS-PAGE, the separated protein was transferred to polyvinylidene fluoride membrane. After blocking with 5% skimmed milk for 1 h, the membrane was washed two times with 0.5% PBS-Tween 20 (PBS-T), then the membrane with the primary antibody was incubated overnight in a shaker at 4°C. Primary antibodies include β-actin (1:2,000), p65 (1:1,000), NF-κB (1:1,000), Caspase-9 (1:1,000), Caspase-3 (1:1,000), Bax (1:2,000), Bcl-2 (1:1,000), Cyclin D1 (1:1,000), p21 (1:1,000), and p27 (1:1,000). After washing 3 times with PBS-T buffer for 10 min each time, the membrane was incubated with HRP-conjugated secondary antibody at 37°C for 30 min. Secondary antibodies include anti-mouse IgG antibody (1:5,000), anti-rabbit IgG antibody (1:2,000~1:4,000). The membrane was washed 3 times with PBS-T for 10 min each time. Finally, it was detected by an enhanced chemiluminescence detection system, and the results were quantified by ImageJ.

Assay [2] has as its system CMT-7364 cells. The note with it: inhibitor with celastrol, 24 h, vs celastrol alone. The method, then:
as §1

In assay [3] the test system is CMT-7364 cells. The note with it: inhibitor with 0.9 μM celastrol, 24 h.
The subject of assay [4] is CIPp cells. The note with it: inhibitor with 0.9 μM celastrol, 24 h.

For the compound `COC(=O)C[C@H](NC(=O)[C@H](C)NC(=O)[C@@H](NC(=O)OCc1ccccc1)C(C)C)C(=O)CF` [Z-V-F, Z-VAD-FMK] (Cbz-Val-Ala-Asp(OMe)-CH2F), the “expression of anti-apoptotic protein Bcl-2” value in the assay with CIPp cells [1] and in the assay with CMT-7364 cells [2] was “increased” each time. Moreover, the “expression of pro-apoptotic protein Bax induced by celastrol” value with CIPp cells [1] and in the assay with CMT-7364 cells [2] was “decreased” each time. In addition, the “effect on 0.9 μM celastrol-induced apoptosis” value in the assay on CMT-7364 cells [3] and in the assay on CIPp cells [4] was “block” each time.
